Data published in article PMC2149952 (British Journal of Cancer, 1998).
Like-named read-outs stand apart in the source and are kept apart here.

Assays:
[1] = in vivo
Protocol: British Joumal of Cancer (1998) 77(5), 808-81 1 ? […] Penclomedine administration by 1-h intravenous infusion on 5 consecutive days was repeated 3 weekly in the absence of dose-limiting toxicity (DLT) or disease progression. Five dose levels were investigated (22.5-340 mg m-2 day-'). Eight men and eight women were entered, median age 59 years (range 39-73 years), with good performance status (ECOG 0/1) in 11 patients. A total of 13 out of 16 patients had received previous chemotherapy. […] Neurotoxicity developed during the 1-h infusion and persisted for a variable period (maximum 5 h) after infusion. […] Penclomedine pharmacokinetic studies confirmed preclinical evidence of extensive apparent distribution (931 m-2) and rapid clearance (41 1 h-1m-2). […] Therefore, an experimental formulation of penclomedine as a 10% oil in water emulsion was developed for intravenous (i.v.) administration. […] Single treatments were effective when administered intra- venously, but the dose used in a rapid bolus push was limited by acute lethality. […] Penclomedine has also been tested in drug-resistant cell lines (doxorubicin, vincristine, cisplatinum, methotrexate, Ara-C and 5-FU) including the multidrug-resistant (MDR) phenotype. […] Preclinical toxicology studies were performed in mice, rats, and dogs. In mice, the maximum tolerated dose (MTD) was 150 mg kg-' (450 mg m-2) as a single i.v. dose and 80 mg kg-' day-' (240 mg m-2 day-'; total dose 1200 mg m-2) on a daily x 5 schedule. […] 808 Phase I trial of penclomedine 809 The aims of this phase I study were: (a) to determine the MTD of penclomedine when administered i.v. once daily for 5 days every 21 days; (b) to identify the toxicity profile of penclomedine and to determine whether this is predictable, tolerable and reversible, and to define dose-limiting toxicities in patients; (c) to determine the pharmacokinetics of penclomedine at different dose levels; (d) to define a safe dose for subsequent phase II studies of anti-tumour activity; and (e) to observe and record any possible therapeutic effectiveness of penclomedine. MATERIALS AND METHODS This was an open non-randomized study with dose escalation that continued until the dose-limiting toxicity was defined. A minimum of three patients were treated at each dose level. […] All patients were required to give written informed consent. Before commencing the study ethical approval was obtained from the Medicine and Clinical Oncology Research Ethics Sub-Committee of Lothian Health Board (ref. MCO/ 105/92) and the study was conducted according to the Helsinki Declaration. This trial was conducted under the auspices of the Cancer Research Campaign Phase I/II Clinical Trials Committee. […]

[2] = tested on: malignancy; test: Phase I study: tumour response (UICC criteria); format: in vivo; conditions: 16 patients, all dose levels
Protocol: British Joumal of Cancer (1998) 77(5), 808-81 1 ? […] Penclomedine administration by 1-h intravenous infusion on 5 consecutive days was repeated 3 weekly in the absence of dose-limiting toxicity (DLT) or disease progression. Five dose levels were investigated (22.5-340 mg m-2 day-'). Eight men and eight women were entered, median age 59 years (range 39-73 years), with good performance status (ECOG 0/1) in 11 patients. A total of 13 out of 16 patients had received previous chemotherapy. […] Neurotoxicity developed during the 1-h infusion and persisted for a variable period (maximum 5 h) after infusion. […] Penclomedine pharmacokinetic studies confirmed preclinical evidence of extensive apparent distribution (931 m-2) and rapid clearance (41 1 h-1m-2). […] Therefore, an experimental formulation of penclomedine as a 10% oil in water emulsion was developed for intravenous (i.v.) administration. […] Single treatments were effective when administered intra- venously, but the dose used in a rapid bolus push was limited by acute lethality. […] Penclomedine has also been tested in drug-resistant cell lines (doxorubicin, vincristine, cisplatinum, methotrexate, Ara-C and 5-FU) including the multidrug-resistant (MDR) phenotype. […] Preclinical toxicology studies were performed in mice, rats, and dogs. […]

[3] = Plasma pharmacokinetics in phase I patients (HPLC, two-compartment model); format: in vivo
Protocol: British Joumal of Cancer (1998) 77(5), 808-81 1 ? […] Penclomedine administration by 1-h intravenous infusion on 5 consecutive days was repeated 3 weekly in the absence of dose-limiting toxicity (DLT) or disease progression. Five dose levels were investigated (22.5-340 mg m-2 day-'). Eight men and eight women were entered, median age 59 years (range 39-73 years), with good performance status (ECOG 0/1) in 11 patients. A total of 13 out of 16 patients had received previous chemotherapy. […] Neurotoxicity developed during the 1-h infusion and persisted for a variable period (maximum 5 h) after infusion. […] Penclomedine pharmacokinetic studies confirmed preclinical evidence of extensive apparent distribution (931 m-2) and rapid clearance (41 1 h-1m-2). […] Therefore, an experimental formulation of penclomedine as a 10% oil in water emulsion was developed for intravenous (i.v.) administration. […] Single treatments were effective when administered intra- venously, but the dose used in a rapid bolus push was limited by acute lethality. […] Penclomedine has also been tested in drug-resistant cell lines (doxorubicin, vincristine, cisplatinum, methotrexate, Ara-C and 5-FU) including the multidrug-resistant (MDR) phenotype. […] Preclinical toxicology studies were performed in mice, rats, and dogs. In mice, the maximum tolerated dose (MTD) was 150 mg kg-' (450 mg m-2) as a single i.v. dose and 80 mg kg-' day-' (240 mg m-2 day-'; total dose 1200 mg m-2) on a daily x 5 schedule. […] 808 Phase I trial of penclomedine 809 The aims of this phase I study were: (a) to determine the MTD of penclomedine when administered i.v. once daily for 5 days every 21 days; (b) to identify the toxicity profile of penclomedine and to determine whether this is predictable, tolerable and reversible, and to define dose-limiting toxicities in patients; (c) to determine the pharmacokinetics of penclomedine at different dose levels; (d) to define a safe dose for subsequent phase II studies of anti-tumour activity; and (e) to observe and record any possible therapeutic effectiveness of penclomedine. MATERIALS AND METHODS This was an open non-randomized study with dose escalation that continued until the dose-limiting toxicity was defined. A minimum of three patients were treated at each dose level. […] All patients were required to give written informed consent. Before commencing the study ethical approval was obtained from the Medicine and Clinical Oncology Research Ethics Sub-Committee of Lothian Health Board (ref. MCO/ 105/92) and the study was conducted according to the Helsinki Declaration. This trial was conducted under the auspices of the Cancer Research Campaign Phase I/II Clinical Trials Committee. […] Adequate bone marrow, hepatic and renal function was required (WBC > 3 x 109 1-1, platelet count > 100 x 109 1-1, serum creatinine < 120 gmmol 1-l, bilirubin < 30 gmol 1-1, and other liver function tests within twice the upper limit of normal (unless known to be related to liver metastases)). Patients were deemed ineligible in the event of pregnancy or lactation, previous chemotherapy or radiotherapy within the last 4 weeks (6 weeks for nitrosoureas or mitomycin C), the presence of another non-malignant disease that in the opinion of the investi- gator was incompatible with this protocol, concurrent administra- tion of another investigational drug, or cytotoxic, hormonal or biological therapy. Patients with brain metastases or primary brain tumours were excluded and also patients with epilepsy or chronic neurological disorders that might interfere with the assessment of neurological toxicity. Penclomedine was formulated as a de novo emulsion (in 100 ml: soybean oil, […]; lecithin, 30 mg; glycerin 20 mg and water for injection) and stored as intact vials under refrigeration (2-8?C). Penclomedine emulsions were diluted up to 1:10 using 5% dextrose solution. […] Penclomedine was supplied by the NCI DCT under the special foreign exemption mechanism established with the FDA. […]

[4] = design: method as in Reid et al, 1992; conditions: ref Reid et al, 1992, cited from earlier work
[5] = design: method as in Reid et al, 1992; conditions: ref Reid et al, 1992; cited from earlier work
[6] = design: method as in personal communication, AC Smith, NCI; conditions: mice, ref personal communication, AC Smith, NCI, cited from earlier work
[7] = tested on: cerebellum; design: method as in O'Reilly et al, 1996a; conditions: ref O'Reilly et al, 1996a, cited from earlier work
[8] = tested on: human MX-1 mammary tumour xenograft; conditions: cited from earlier work
[9] = tested on: subrenal capsule xenograft of the human MX-1 mammary carcinoma; design: method as in Harrison 1991; conditions: oral 300 mg kg-1 day-1 on days 13, 17 and 21; for 40 days after the last treatment; ref Harrison 1991; cited from earlier work
[10] = tested on: human H82 small cell lung carcinoma xenografts; design: method as in Harrison 1991; conditions: oral 445 mg kg-1 day-1; ref Harrison 1991; cited from earlier work
[11] = tested on: drug-resistant cell lines; design: method as in Harrison et al, 1991; conditions: ref Harrison et al, 1991, cited from earlier work
[12] = tested on: mouse CD8F, mammary carcinoma; design: method as in Plowman et al, 1989; conditions: ref Plowman et al, 1989; cited from earlier work
[13] = design: method as in Prankerd et al, 1989; conditions: ref Prankerd et al, 1989; cited from earlier work
[14] = design: method as in O'Reilly et al, 1996b; conditions: ref O'Reilly et al, 1996b; cited from earlier work
[15] = cited from earlier work
[16] = mean of 10 patients, 150-340 mg m-2 day-1, initial 24 h

COc1nc(C(Cl)(Cl)Cl)c(Cl)c(OC)c1Cl [penclomedine, 3,5-Dichloro-2,4-dimethoxy-6-(trichloromethyl)pyridine]
persistence of neurotoxicity after infusion (maximum) ([1]; both, human): ≤ 5 h
dose at which dose-limiting toxicity occurred ([1]; both, human, iv, 5 days): 340 mg m-2 day-1
antiproliferative toxicities (myelosuppression, mucositis) [1]: No antiproliferative toxicities were noted
dose-limiting toxicity (DLT) ([1]; iv): Neurotoxicity (cerebellar ataxia and dizziness)
anti-tumour responses [2]: no anti-tumour responses were documented
dose dependence of total body clearance ([3]; 150-340 mg m-2 day-1): did not vary with dose
metabolites in plasma of patients ([3]; human, in vivo): not detected
apparent distribution volume (mean Vc + Vp) ([3]; human, in vivo, iv): 93 l m-2
half-life ([3]; human, in vivo, patients, read-out: apparent elimination phase half-life (t1/2 beta) (converted)): 2.4 h
half-life ([3]; human, in vivo, patients, read-out: initial distribution phase half-life (t1/2 alpha)): 0.2 h
Cld (distributional clearance), mean [3, 16]: 43 l h-1 m-2
Clt (total body clearance), mean [3, 16]: 41 l h-1 m-2
clearance ([3]; patients, i.v. infusion, abstract): 41 l h-1 m-2
metabolism of radiolabelled penclomedine ([4]; after both i.v. and oral administration): extensive
clearance ([4]; mice, parent drug): 114 ml min-m m-2
half-life ([4]; mice, parent drug): 1.15 h
volume of distribution ([4]; mice, parent drug): 4.8 l m-2
oral bioavailability of the parent compound ([4]; mice): 2%
in vitro metabolism [5]: subject to metabolism under both oxidative and reductive conditions
dose-limiting toxicity ([6]; daily x 5 schedule): bone marrow suppression
maximum tolerated dose (MTD), total dose ([6]; daily x 5 schedule): 1200 mg m-2
dose-limiting toxicity ([6]; single dose schedule): neurological
cerebellar finding in preclinical models ([7]; after intraperitoneal administration): Purkinje cell loss
single dose producing visible pathological changes in the cerebellum ([7]; rats, intraperitoneal injection, may be irreversible): ≥ 150 mg kg-1
tumour-free survivors ([8]; advanced stage MX-1 mammary carcinoma, oral 135 mg kg-1 day-1 for 5 days, oil in water emulsion, ref Harrison et al, 1991): ten out of ten
anti-tumour activity ([8]; human MX-1 mammary tumour xenograft, ref Plowman et al, 1989): good activity
tumour regression [9]: complete regression of all tumours
complete regressions [10]: six out of ten
partial regressions [10]: four out of ten
activity in resistant versus wild-type cell lines ([11]; lines resistant to doxorubicin, vincristine, cisplatinum, methotrexate, Ara-C and 5-FU, including MDR phenotype): equivalent activity
sensitivity of AMSA-resistant line [11]: collaterally sensitive
sensitivity of L-PAM-resistant line [11]: resistant
anti-tumour activity [12]: good activity
solubility in non-polar solvents and lipids [13]: soluble
solubility in water [13]: poorly soluble
chemical species found in rat brain [14]: predominant chemical species
toxicity at the MTD ([15]; beagle dogs, 90 mg kg-1, ref Dixit et al, 1992): reversible myelosuppression
plasma penclomedine concentrations ([15]; beagle dogs, 90 mg kg-1 dose level, not associated with neurotoxicity, ref Dixit et al, 1992): 6 to 9 µg/mL
maximum tolerated dose (MTD) ([15]; beagle dogs, single 5-h infusion, ref Dixit et al, 1992): 90 mg/kg
toxicity at higher dosages ([15]; dog, in vivo): dose-limiting neurotoxicity
